From US10669287B2, “Curcumin-boron complex and pharmaceutical containing same” (JAPAN SCIENCE AND TECHNOLOGY AGENCY, priority 2016, dated 2020)
Where two headings read alike, the source gives them in different places.

Legend:
[1] = biological target: T1, Aβ1-42 (Homo sapiens, UniProt P05067); test: Oxygenation under mouse skin, Test Example 7; assay type: in vivo; details: microtube with Aβ1-42 20 μM aggregated 3 hours, implanted in back skin, LED 780 nm, 30 minutes
T1 construct: phosphate buffer (pH 7.4)/cell culture solution (containing 0.1% horse serum) (1:3) containing Aβ1-42 (10 μM)
Method: A microtube containing a phosphate buffer containing Aβ1-42 (20 μM, aggregated in advance for 3 hours) and the compound E or a compound 3 [9-(6-bromo-3-methyl-1,3-benzotriazol-3-ium-2-yl)-julolidine] was implanted in the back skin of a wild mouse, and light irradiation with an LED lamp was performed from the outside of the mouse body at a wavelength of 780 nm for 30 minutes (FIG. 10). As a control experiment, another microtube containing the same components (Aβ1-42 (20 μM, aggregated in advance for 3 hours) and the compound E or the compound 3) was directly subjected to light irradiation outside of the mouse body. The reaction mixture was analyzed by using a MALDI-TOF MS, and then subjected to ZipTip treatment for analysis. The percentage of oxygenation ratio was calculated from the percentage of oxygenation ratio under the skin and the oxygenation ratio outside of the skin “[oxygenation ratio under mouse skin/oxygenation ratio outside of mouse skin]×100”.

[2] = biological target: T1, Aβ1-42; test: Degree of oxygenation of pre-aggregated Aβ1-42 (MALDI-TOF MS), Test Example 10; assay type: biochemical; details: pre-aggregated Aβ1-42 20 μM, catalyst 2 μM, 37° C., 30 minutes; for Degree of oxygenation (%) of Aβ42 (λ = 660 nm): phosphate buffer pH 7.4, 660 nm; for Degree of oxygenation (%) of Aβ42 (λ = 780 nm): phosphate buffer pH 7.4, 780 nm (14 mW)
Method: (§1) Aβ1-42 isopeptide (concentration: 250 μM in 0.1% aqueous solution of trifluoroacetic acid), angiotensin IV (200 μM aqueous solution), Met-enkephalin (200 μM aqueous solution), and somatostatin (200 μM aqueous solution) were added to a phosphate buffer or phosphate buffer saline (pH 7.4) (with 0.1 M aqueous solution of sodium hydroxide, as necessary) so that a final peptide concentration of 20 μM or 40 μM (pH 7.4) was reached. Before being subjected to oxygenation reaction, the Aβ1-42 solution was incubated at 37° C. for 1 to 3 hours. The phosphate buffer containing 40 μM of Aβ was diluted with a Dulbecco's modified Eagle's medium (DMEM, Life Technologies) containing 0.1% horse serum and buffered with 25 mM of 4-(2-hydroxyethyl)-1-piperazineethanesulfonic acid (HEPES).
(§2) Solutions of the compounds with a final concentration of 2 μM were used for evaluation of oxygenation of Aβ1-42. Solutions of the compounds with a final concentration of 5 μM were used for evaluation of peptide selectivity. Each mixture was subjected to light irradiation with an LED (wavelength: 500, 660, or 780 nm) at a distance of approximately 5 to 10 cm at room temperature. A control group without light irradiation was additionally prepared. Reaction was analyzed through monitor analysis with a MALDI-TOF MS. Degree of oxygenation was determined as a ratio: degree of oxygenation (%)=(total of MS intensities for n[O] adducts)/(MS intensity for native+total of MS intensities for n[O] adducts)×100. Aliquots of each reaction solution were desalted with a ZipTip U-C18 (Merck Millipore), as necessary, before mass spectrometry.
a: A phosphate buffer (pH 7.4) solution containing pre-aggregated Aβ1-42 (20 μM, incubated at 37° C. for 3 hours) and a catalyst (2 μM) was subjected to light irradiation (wavelength: 660 nm) at 37° C. for 30 minutes. Thereafter, the reaction mixture was analyzed by using a MALDI-TOF MS.
a: A phosphate buffer (pH 7.4) containing pre-aggregated Aβ1-42 (20 μM, obtained through incubation at 37° C. for 3 hours) and a catalyst (2 μM) were subjected to light irradiation at 780 nm (14 mW) at 37° C. for 30 minutes. The reaction mixture was analyzed by using a MALDI-TOF MS.

[3] = Maximum wavelength λmax of photocatalysts; assay type: physicochemical
[4] = biological target: T2, Arctic Aβ1-38 (Homo sapiens, UniProt P05067, E693G); assay type: biochemical; details: mouse brain lysate, riboflavin, light irradiation
T2 construct: The peak intensity decreased by 36%/53%/74% for Arctic Aβ1-38; from tissue; host or cells: cerebral cortex and hippocampus of App knock-in mouse
Method: The brain excised from an eight-month-old App knock-in (App^NL-C-F/NL-C-F) mouse (Alzheimer's model mouse) was separated into the cerebral cortex, the hippocampus, and the residual brain tissues. The cerebral cortex and the hippocampus were homogenized together in a phosphate buffer saline, and the suspension was stored at −80° C. […] At an arbitrary point of time, an arbitrary aliquot of the reaction mixture was diluted with formic acid to a final concentration of 70%, concentrated, and redissolved in a 6 M aqueous solution of urea.

[5] = biological target: T3, Aβ peptide (Homo sapiens, UniProt P05067); test: Aβ selectivity of oxygenation, Test Example 9; assay type: biochemical; details: peptide 20 μM, riboflavin 5 μM, 500 nm, 37° C., 30 minutes
T3 construct: Aβ1-42 isopeptide (concentration: 250 μM in 0.1% aqueous solution of trifluoroacetic acid)
Method: as §1
as §2, with “Each mixture was subjected to light irradiation with an LED (wavelength: 500, 660, or 780 nm) at a distance of approximately 5 to 10 cm at room temperature.” left out

[6] = biological target: T4, Met-enkephalin (ME) (Homo sapiens, UniProt P01210); test: Aβ selectivity of oxygenation, Test Example 9; assay type: biochemical; details: peptide 20 μM, riboflavin 5 μM, 500 nm, 37° C., 30 minutes
T4 construct: angiotensin-IV (AT4), Met-enkephalin (ME), or somatostatin (Sst) (20 μM in each case)
Method: as §1
as §2, with “Each mixture was subjected to light irradiation with an LED (wavelength: 500, 660, or 780 nm) at a distance of approximately 5 to 10 cm at room temperature.” left out

[7] = biological target: T5, angiotensin-IV (AT4) (Homo sapiens, UniProt P01019); test: Aβ selectivity of oxygenation, Test Example 9; assay type: biochemical; details: peptide 20 μM, riboflavin 5 μM, 500 nm, 37° C., 30 minutes
T5 construct: angiotensin-IV (AT4), Met-enkephalin (ME), or somatostatin (Sst) (20 μM in each case)
Method: as §1
as §2, with “Each mixture was subjected to light irradiation with an LED (wavelength: 500, 660, or 780 nm) at a distance of approximately 5 to 10 cm at room temperature.” left out

[8] = biological target: T6, somatostatin (Sst) (Homo sapiens, UniProt P61278); test: Aβ selectivity of oxygenation, Test Example 9; assay type: biochemical; details: peptide 20 μM, riboflavin 5 μM, 500 nm, 37° C., 30 minutes
T6 construct: angiotensin-IV (AT4), Met-enkephalin (ME), or somatostatin (Sst) (20 μM in each case)
Method: as §1
as §2, with “Each mixture was subjected to light irradiation with an LED (wavelength: 500, 660, or 780 nm) at a distance of approximately 5 to 10 cm at room temperature.” left out

[9] = test system: PC 12 cells; test: Cytotoxicity under light irradiation, WST-8 cell viability, Test Example 2; assay type: cell-based, rat; details: LED 660 nm, 10 mW, 5 minutes, then 48 hours
Method: A culture medium for rat adrenal medulla-derived pheochromocytoma PC 12 cells (purchased from RIKEN, Japan) seeded on a poly-D-lysine-coated 96-well plate was replaced with 75 μL of a Dulbecco's modified Eagle's medium containing 0.1% horse serum, and the culture was incubated in a 5% CO2 atmosphere at 37° C. for 1 day, and 25 μL of a phosphate buffer saline (pH 7.4) containing a inventive compound was then added thereto. Thereafter, the mixed solution was incubated under LED irradiation (wavelength: 660 nm, 10 mW) (without light irradiation for dark) at 37° C. for 5 minutes. Further, the cell culture plate containing the reaction solution was incubated in a 5% CO2 atmosphere at 37° C. for 48 hours. Finally, the Cell Count Reagent SF (10 μL: purchased from NACALAI TESQUE, INC.) containing WST-8 was added, and the culture was incubated in a 5% CO2 atmosphere at 37° C. for 3 hours, and thereafter the cell viability was determined from the absorbance at 450 nm (reference wavelength: 655 nm).

[10] = Stability of catalyst in neutral phosphate buffer without or under light irradiation (HPLC), Test Example 5; assay type: physicochemical; details: under light irradiation (660 nm)
Method: A neutral phosphate buffer containing a catalyst was incubated without light irradiation or under light irradiation (660 nm), and thereafter ethanol containing benzyl alcohol (as an internal standard) was added thereto, and analysis was performed by using HPLC.

[11] = test system: PC 12 cells; assay type: cell-based
Method: Rat pheochromocytoma PC 12 cells were suspended with DMEM containing 5% horse serum and 10% fetal bovine serum, seeded in a poly-D-lysine-coated 96-well plate at a concentration of 10,000 cells per well, and incubated in a 5% carbon dioxide atmosphere at 37° C. for 3 days. After the solvent was removed, the cells were washed with 150 μL of serum-free DMEM, and DMEM (75 μL) containing 0.1% horse serum was added thereto. Thereafter, the 96-well plate was incubated in a 5% carbon dioxide atmosphere at 37° C. for 1 day for use in oxygenation reaction. In oxygenation reaction, the compound E (100 μM dimethyl sulfoxide solution) was added to a phosphate buffer saline containing Aβ (aggregated in advance for 3 hours, 40 μM) and 25 μL of the above cell solution (final concentration of Aβ: 10 μM, final concentration of compound E: 1 μM). The mixture was irradiated with an LED (wavelength: 780 nm) at a distance of approximately 5 cm at 37° C. for 5 minutes. The cells were incubated in a 5% carbon dioxide atmosphere at 37° C. for 48 hours. The cell viability was measured by using the Cell Count Reagent SF (NACALAI TESQUE, INC., Kyoto, Japan) with WST-8 (2-(2-methoxy-4-nitrophenyl)-3-(4-nitrophenyl)-5-(2,4-disulfophenyl)-2H-tetrazolium).
b: LC50 (dark) indicates the toxicity of a compound itself, and LC50 (light) indicates the phototoxicity of a compound. The PC 12 cells were placed in dark or subjected to photocatalytic treatment under light irradiation (wavelength: 660 nm), and incubated at 37° C. for 5 minutes, and then in a 5% carbon dioxide atmosphere at 37° C. for 48 hours, for which the cell viability was analyzed (n=5, mean±SEM).
b: The PC 12 cells were treated together with a photocatalyst (1 μM) at 37° C. for 5 minutes in dark or under light irradiation (wavelength: 780 nm), and thereafter the cell viability was analyzed (n=3, mean±SEM).

[12] = biological target: T1, Aβ1-42; test: In vitro oxygenation experiment using Aβ1-42 as a substrate (MALDI-TOF MS), Test Example 1; assay type: biochemical; details: test compound 1 μM, Aβ1-42 10 μM, 37° C.
Method: An in vitro oxygenation experiment using Aβ1-42 as a substrate was conducted to confirm that each of the inventive compounds actually have Aβ oxygenation activity. A test compound (1 μM in each case) was added to phosphate buffer (pH 7.4)/cell culture solution (containing 0.1% horse serum) (1:3) containing Aβ1-42 (10 μM), and incubated under LED irradiation (wavelength: 660 nm, 730 nm) at 37° C., and then the reaction was tracked by using a mass spectrometer (MALDI-TOF MS). The native Aβ1-42 and the Na^+ adduct were mainly observed before light irradiation. After light irradiation, an ion peak indicating the presence of the oxygenated form was observed over time (FIG. 1, FIG. 2).

SMILES | Degree of oxygenation (%) of Aβ42 (λ = 660 nm) [2] | Maximum wavelength λmax (nm) ([3]; Table 1) | toxicity under light irradiation (ranking) [9] | stability of catalyst (ranking) [10] | Degree of oxygenation (%) of Aβ42 (λ = 780 nm) [2] [%] | Maximum wavelength λmax (nm) ([3]; Table 2) | other results
C[n+]1c2ccc(Br)cc2nn1-c1cc2c3c(c1)CCCN3CCC2 [Compound 3, 9-(6-bromo-3-methyl-1,3-benzotriazol-3-ium-2-yl)-julolidine, reference compound] | trace | 456 | – | – | – | – | percentage of oxygenation ratios [oxygenation ratio under mouse skin/oxygenation ratio outside of mouse skin]×100 [1]: 12%
Cc1cc2nc3c(=O)[nH]c(=O)nc-3n(C[C@H](O)[C@H](O)[C@H](O)CO)c2cc1C [riboflavin, reference compound] | – | – | – | – | – | – | consumption of Aβ1-38 [4]: consumed to a significant degree; yield of oxygenated Aβ [5]: 43%; yield of oxygenated Met-enkephalin [6]: 50%; yield of oxygenated angiotensin-IV [7]: 35%; yield of oxygenated somatostatin [8]: 60%
CN(C)c1ccc(/C=C/C2=C(Br)C(/C=C/c3ccc4c(c3)CCCN4CCCCCC(=O)O)=[O+][B-](F)(F)O2)cc1 [Compound L] | 73% | 623 | higher in the order of the compound J, the compound K, and the compound L | stability was the lowest | – | – | CC50 [11]: 24 nM
CN(C)c1ccc(/C=C/C2=C(Br)C(/C=C/c3ccc4c(c3)CCCN4CCCCCC(=O)O)=[O+][B-](F)(C(F)(F)C(F)(F)F)O2)cc1 (centres unmarked) [Compound J] | 79% | 622 | higher in the order of the compound J, the compound K, and the compound L | higher in the order of BFCF3 (compound K)<BFCF2CF3 (compound J) | 41 | 620 | –
CN(C)c1ccc(/C=C/C2=CC(=C/C=C3C=CC(=[N+](C)C)C=C3)/O[B-](F)(F)O2)cc1 [CRANAD-2, (T-4)-[(1E,6E)-1,7-bis[4-(dimethylamino)phenyl]-1,6-heptadiene-3,5-dionato-κO^3,κO^5]difluoroboron, reference compound] | trace | 579 | – | – | – | – | –
CN(C)c1ccc(/C=C/C2=C(I)C(/C=C/c3ccc4c(c3)CCCN4CCCCCC(=O)O)=[O+][B-](F)(C(F)(F)F)O2)cc1 (centres unmarked) [M] | – | – | iodine provides more reduced toxicity than in the case of bromine | – | – | – | oxygenation of Aβ1-42 under light irradiation ([12]; LED irradiation at 730 nm): oxygenation of the Aβ proceeded
O=C(O)CCCCCN1CCCc2cc(/C=C/C3=[O+][B-](F)(C(F)(F)C(F)(F)C(F)(F)F)OC(/C=C/c4cc5c6c(c4)CCCN6CCC5)=C3Br)ccc21 (centres unmarked) [Compound S] | – | – | – | – | 37 | 633 | CC50 [11]: > 10000 nM
O=C(O)CCCCCN1CCCc2cc(/C=C/C3=[O+][B-](F)(C(F)(F)F)OC(/C=C/c4cc5c6c(c4)CCCN6CCC5)=C3Br)ccc21 (centres unmarked) [Compound I] | – | – | – | stability was higher | 52 | 645 | oxygenation of Aβ1-42 under light irradiation ([12]; LED irradiation at both 660 nm and 730 nm): oxygenation of the Aβ proceeded; CC50 ([11]; PC 12 cells in dark, 37° C., 5 minutes, n=3, mean±SEM, Table 2, read-out: LC50 (dark)): > 10000 nM; CC50 ([11]; PC 12 cells, light irradiation 780 nm, 37° C., 5 minutes, n=3, mean±SEM, Table 2, read-out: LC50 (light)): 1670 nM
